# Source: article PMC8776063, “Aurora Kinase A Is Involved in Controlling the Localization of Aquaporin-2 in Renal Principal Cells” (International Journal of Molecular Sciences, 2022)
# Where two headings read alike, the source gives them in different places.
# Key:
# AURKA = target: T1, AURKA (Homo sapiens, UniProt O14965); assay: NanoBRET assay in HEK293T cells; format: cell-based; details: NanoBRET
# T1 construct: full-length wild-type AURKA, AURKB, and AURKC were obtained as plasmids cloned in frame with a C-terminal NanoLuc-fusion; host or cells: HEK293T
# T1 sequence (O14965 1-403): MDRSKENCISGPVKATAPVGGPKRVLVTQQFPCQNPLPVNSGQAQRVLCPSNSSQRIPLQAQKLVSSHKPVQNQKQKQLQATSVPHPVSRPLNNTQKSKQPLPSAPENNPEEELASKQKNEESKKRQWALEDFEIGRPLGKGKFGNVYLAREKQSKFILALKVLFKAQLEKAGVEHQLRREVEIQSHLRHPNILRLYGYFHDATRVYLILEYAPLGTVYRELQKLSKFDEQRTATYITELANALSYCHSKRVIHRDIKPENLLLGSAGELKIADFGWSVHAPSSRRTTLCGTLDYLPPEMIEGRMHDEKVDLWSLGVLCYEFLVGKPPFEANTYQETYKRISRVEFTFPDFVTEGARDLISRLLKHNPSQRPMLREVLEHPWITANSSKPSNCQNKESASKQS
# MCD4 cells [1] = assay: MTS assay (cell viability); format: cell-based, mouse; details: 30 µM, 10 µM or 1 µM, 1 h; compared to untreated cells
# AURKC = target: T2, AURKC (Homo sapiens, UniProt Q9UQB9); assay: NanoBRET assay in HEK293T cells; format: cell-based; details: NanoBRET, Figure 6B, read-out: affinity to intracellular AURKC
# T2 construct: full-length wild-type AURKA, AURKB, and AURKC were obtained as plasmids cloned in frame with a C-terminal NanoLuc-fusion; host or cells: HEK293T
# T2 sequence (Q9UQB9 1-309): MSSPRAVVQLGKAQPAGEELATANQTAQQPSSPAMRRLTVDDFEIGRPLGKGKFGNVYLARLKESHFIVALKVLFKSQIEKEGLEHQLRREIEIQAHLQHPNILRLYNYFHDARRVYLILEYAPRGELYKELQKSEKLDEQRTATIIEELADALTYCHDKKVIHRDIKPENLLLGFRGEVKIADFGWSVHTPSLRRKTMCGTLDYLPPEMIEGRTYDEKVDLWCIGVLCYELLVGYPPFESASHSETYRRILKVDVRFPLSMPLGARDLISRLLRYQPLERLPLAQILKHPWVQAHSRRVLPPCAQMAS
# AURKB = AURKB (Homo sapiens, UniProt Q96GD4); assay: NanoBRET assay in HEK293T cells; format: cell-based; design: full-length wild-type AURKA, AURKB, and AURKC were obtained as plasmids cloned in frame with a C-terminal NanoLuc-fusion; host or cells: HEK293T; details: NanoBRET
# STK3 = target: T3, STK3 (Homo sapiens, UniProt Q13188); assay: Thermal shift assay; format: binding; details: read-out: ΔTm STK3
# T3 construct: purchased in-house thermal shift (DSF) kinase panel (SGC Frankfurt); Promega NanoBRET for AURKA/B/C
# T3 sequence (Q13188 16-313): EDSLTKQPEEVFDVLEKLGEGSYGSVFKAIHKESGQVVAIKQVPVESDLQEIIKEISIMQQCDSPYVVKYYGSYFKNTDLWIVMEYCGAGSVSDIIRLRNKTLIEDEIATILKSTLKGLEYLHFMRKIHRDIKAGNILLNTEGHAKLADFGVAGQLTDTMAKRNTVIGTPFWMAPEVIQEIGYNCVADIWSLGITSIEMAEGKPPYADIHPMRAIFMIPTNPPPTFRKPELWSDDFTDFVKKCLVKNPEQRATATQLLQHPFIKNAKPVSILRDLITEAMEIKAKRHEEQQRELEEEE
# CAMKK2 = target: T4, CAMKK2 (Homo sapiens, UniProt Q96RR4); assay: Thermal shift assay; format: binding; details: read-out: ΔTm CAMKK2
# T4 construct: purchased in-house thermal shift (DSF) kinase panel (SGC Frankfurt); Promega NanoBRET for AURKA/B/C
# STK39 = target: T5, STK39 (Homo sapiens, UniProt Q9UEW8); assay: Thermal shift assay; format: binding; details: read-out: ΔTm STK39
# T5 construct: purchased in-house thermal shift (DSF) kinase panel (SGC Frankfurt); Promega NanoBRET for AURKA/B/C
# STK17A = target: T6, STK17A (Homo sapiens, UniProt Q9UEE5); assay: Thermal shift assay; format: binding; details: read-out: ΔTm STK17A
# T6 construct: purchased in-house thermal shift (DSF) kinase panel (SGC Frankfurt); Promega NanoBRET for AURKA/B/C
# T6 sequence (Q9UEE5 61-321): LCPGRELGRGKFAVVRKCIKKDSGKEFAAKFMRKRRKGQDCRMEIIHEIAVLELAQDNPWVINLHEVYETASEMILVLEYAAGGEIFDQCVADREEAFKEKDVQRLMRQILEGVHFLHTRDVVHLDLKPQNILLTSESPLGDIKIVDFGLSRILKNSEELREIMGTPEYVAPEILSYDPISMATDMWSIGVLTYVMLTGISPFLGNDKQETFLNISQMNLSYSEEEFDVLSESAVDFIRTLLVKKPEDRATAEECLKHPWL
# MCD4 cells [2] = assay: AQP2 redistribution, immunofluorescence microscopy; details: compound 30 µM, 1 h (Aurora-A inhibitor I 1-30 µM), forskolin 30 µM, 30 min
# [3] = system: CFL1 phosphorylation in MCD4 cells; assay: CFL1 phosphorylation, Western blotting; format: cell-based, mouse; details: compound 30 µM, 1 h
# MCD4 cells [4] = assay: F-actin stress fiber staining (phalloidin); format: cell-based, mouse; details: compound 30 µM, 1 h
# primary IMCD cells [5] = assay: AQP2 redistribution, immunofluorescence microscopy; details: compound 20 µM, 1 h (Aurora-A inhibitor I 1-30 µM), AVP 100 nM, 30 min
# primary IMCD cells [6] = assay: F-actin stress fiber staining (phalloidin); format: cell-based, rat; details: compound 20 µM, 1 h
# [7] = system: complex of AURKA and TPX2; design: method as in PMID 26732741; details: cited from earlier work
# M12 cells = system: M12 cells; design: method as in PMID 25090971; details: cited from earlier work
# [8] = HEK293T cells overexpressing the kinase, Table 2, read-out: AURKA IC50
# [9] = HEK293T cells overexpressing the kinase, Table 2, read-out: AURKB IC50
# [10] = n = 2, mean, Figure 6B, read-out: affinity to intracellular AURKA
# Chain of AURKB (Q96GD4 whole entry, the tested form may be a part): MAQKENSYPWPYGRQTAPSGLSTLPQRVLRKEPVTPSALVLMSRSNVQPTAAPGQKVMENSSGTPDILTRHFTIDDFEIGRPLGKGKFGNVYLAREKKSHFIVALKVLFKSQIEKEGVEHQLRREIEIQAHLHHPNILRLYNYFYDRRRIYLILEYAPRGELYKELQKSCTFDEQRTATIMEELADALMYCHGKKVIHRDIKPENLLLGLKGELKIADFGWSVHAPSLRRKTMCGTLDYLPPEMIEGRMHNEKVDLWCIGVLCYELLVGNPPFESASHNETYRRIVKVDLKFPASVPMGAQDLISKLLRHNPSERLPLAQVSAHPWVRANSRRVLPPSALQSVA
# T4 sequence (Q96RR4 161-449): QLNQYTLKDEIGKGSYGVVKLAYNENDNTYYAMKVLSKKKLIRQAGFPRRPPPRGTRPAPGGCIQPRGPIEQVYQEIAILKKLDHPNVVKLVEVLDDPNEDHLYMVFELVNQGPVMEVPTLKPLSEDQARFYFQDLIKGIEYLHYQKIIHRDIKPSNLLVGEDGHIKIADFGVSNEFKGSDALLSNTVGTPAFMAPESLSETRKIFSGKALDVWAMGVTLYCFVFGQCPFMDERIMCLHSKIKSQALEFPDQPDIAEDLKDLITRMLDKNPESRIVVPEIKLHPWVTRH
structure (smiles),measurement,setting,value
O=C(Cc1ccc(Nc2ncc(F)c(Nc3ccc(C(=O)Nc4ccccc4Cl)cc3)n2)cc1)NCCO [ERJ2-08],IC50,AURKA; [8],0.237 µM
same,viability of MCD4 cells,MCD4 cells [1],partly increased
same,IC50,"AURKC; n = 2, mean",17 µM
same,IC50,AURKB; [9],16.1 µM
CCN1CCN(C(=O)Cc2ccc(Nc3ncc(F)c(Nc4ccc(C(=O)NCCN5CCCC5)cc4)n3)cc2)CC1 [ERJ2-16],IC50,AURKA; [8],> 50 µM
same,IC50,"AURKC; n = 2, bounds",> 50 µM
same,IC50,AURKB; [9],> 50 µM
"CN[C@@H]1C[C@H]2O[C@@](C)([C@@H]1OC)n1c3ccccc3c3c4c(c5c6ccccc6n2c5c31)C(=O)NC4 [Staurosporine, reference compound]",ΔTm at 10 µM,STK3,13.7 °C
same,ΔTm at 10 µM,CAMKK2,24.2 °C
same,ΔTm at 10 µM,STK39,9.9 °C
same,ΔTm at 10 µM,STK17A,12.9 °C
O=C(O)Cc1ccc(Nc2ncc(F)c(Nc3ccc(C(=O)Nc4ccccc4)cc3)n2)cc1 [ERJ2-10],IC50,AURKA; [8],22.8 µM
same,IC50,"AURKC; n = 2, bounds",> 50 µM
same,IC50,AURKB; [9],> 50 µM
O=C(O)Cc1ccc(Nc2ncc(F)c(Nc3ccc(C(=O)Nc4ccccc4Cl)cc3)n2)cc1 [ERJ2-02],IC50,AURKA; [10],1.33 µM
same,IC50,"AURKC; n = 2, bounds",> 50 µM
same,IC50,AURKB; [9],> 50 µM
O=C(Nc1ccccc1Cl)c1ccc(Nc2nc(Nc3ccc(CC(=O)N4CCOCC4)cc3)ncc2F)cc1 [ERJ2-03],inhibition of the forskolin-induced redistribution of AQP2 to the plasma membrane,MCD4 cells [2],not being an inhibitor
same,IC50,AURKA; [8],1.08 µM
same,viability of MCD4 cells,MCD4 cells [1],reduced by 10 or 30 µM
same,IC50,"AURKC; n = 2, bounds",> 50 µM
same,IC50,AURKB; [9],> 50 µM
COCCNC(=O)Cc1ccc(Nc2ncc(F)c(Nc3ccc(C(=O)Nc4ccccc4Cl)cc3)n2)cc1 [ERJ2-05],IC50,AURKA; [10],0.24 µM
same,viability of MCD4 cells,MCD4 cells [1],partly increased
same,IC50,"AURKC; n = 2, mean",12.9 µM
same,IC50,"AURKB; n = 2, mean, Figure 6B, read-out: affinity to intracellular AURKB",16.8 µM
O=C(O)c1ccc(Nc2ncc(F)c(Nc3ccc(C(=O)O)cc3)n2)cc1 [ERJ2-09],IC50,AURKB; [9],> 50 µM
"CCN(CCO)CCCOc1ccc2c(Nc3cc(CC(=O)Nc4cccc(F)c4)n[nH]3)ncnc2c1 [Barasertib-HQPA, reference compound]",inhibition of the forskolin-induced redistribution of AQP2 to the plasma membrane,MCD4 cells [2],did not
same,CFL1 phosphorylation,[3]; absence and presence of forskolin,no effect
same,effect on actin stress fibers,MCD4 cells [4],resembled those of the control cells
same,inhibition of the AVP-induced redistribution of AQP2 to the plasma membrane,primary IMCD cells [5],No inhibitory effect
same,effect on actin stress fibers,primary IMCD cells [6],resembled those of the control cells
CCN1CCN(C(=O)Cc2ccc(Nc3ncc(F)c(Nc4ccc(C(=O)N5CCN(CC)CC5)cc4)n3)cc2)CC1 [ERJ2-13],IC50,AURKA; [8],37.3 µM
same,IC50,"AURKC; n = 2, bounds",> 50 µM
same,IC50,AURKB; [9],> 50 µM
"COc1cc(Nc2ncc3c(n2)-c2ccc(Cl)cc2C(c2c(F)cccc2OC)=NC3)ccc1C(=O)O [Alisertib, reference compound]",inhibition of the forskolin-induced redistribution of AQP2 to the plasma membrane,MCD4 cells [2],significantly inhibited
same,CFL1 phosphorylation in resting cells,[3]; no forskolin,not reduced
same,effect on actin stress fibers,MCD4 cells [4],promoted or maintained the formation of actin stress fibers
same,decrease of affinity for AURKA in the presence of TPX2,[7],5.8 fold
same,inhibition of the AVP-induced redistribution of AQP2 to the plasma membrane,primary IMCD cells [5],significantly inhibited
same,phosphorylation of CFL1,M12 cells,increased
same,effect on actin stress fibers,primary IMCD cells [6],promoted or maintained the formation of actin stress fibers
